Measurements taken from ChEMBL document CHEMBL3286395, “Tabercarpamines A-J, apoptosis-inducing indole alkaloids from the leaves of Tabernaemontana corymbosa” (J Nat Prod, 2014).

How the values were obtained:
HepG2 [1] = experiment: Induction of apoptosis in human HepG2 cells assessed as necrotic cells at 6.25 uM after 48 hrs using annexin V-FITC/propidium iodide staining by flow cytometry (reference value: 2.39%); type: functional
HepG2 [2] = experiment: Cytotoxicity against human HepG2 cells assessed as decrease in cell viability after 48 hrs by MTT assay; type: functional, cell-based; details: HepG2, 48 h
HepG2 [3] = experiment: Induction of apoptosis in human HepG2 cells assessed as late stage apoptotic cells at 12.50 uM after 48 hrs using annexin V-FITC/propidium iodide staining by flow cytometry (reference value: 0.65%); type: functional
HepG2 [4] = experiment: Induction of apoptosis in human HepG2 cells assessed as necrotic cells at 12.50 uM after 48 hrs using annexin V-FITC/propidium iodide staining by flow cytometry (reference value: 2.39%); type: functional
SMMC-7721 = experiment: Cytotoxicity against human SMMC7721 cells assessed as decrease in cell viability after 48 hrs by MTT assay; type: functional, cell-based; details: SMMC-7721, 48 h
HepG2 [5] = experiment: Induction of apoptosis in human HepG2 cells assessed as viable cells at 6.25 uM after 48 hrs using annexin V-FITC/propidium iodide staining by flow cytometry (reference value: 86.80%); type: functional; details: HepG2, 48 h, read-out: Activity
HepG2 [6] = experiment: Induction of apoptosis in human HepG2 cells assessed as apoptotic rate at 12.50 uM after 48 hrs using annexin V-FITC/propidium iodide staining by flow cytometry (reference value: 10.80%); type: functional
HepG2 [7] = experiment: Induction of apoptosis in human HepG2 cells assessed as viable cells at 12.50 uM after 48 hrs using annexin V-FITC/propidium iodide staining by flow cytometry (reference value: 86.80%); type: functional; details: HepG2, 48 h, read-out: Activity
HepG2 [8] = experiment: Induction of apoptosis in human HepG2 cells assessed as late stage apoptotic cells at 25 uM after 48 hrs using annexin V-FITC/propidium iodide staining by flow cytometry (reference value: 0.65%); type: functional
MCF7 = experiment: Cytotoxicity against human MCF7 cells assessed as decrease in cell viability after 48 hrs by MTT assay; type: functional, cell-based; details: MCF7, 48 h
HepG2 [9] = experiment: Induction of apoptosis in human HepG2 cells assessed as early stage apoptotic cells at 25 uM after 48 hrs using annexin V-FITC/propidium iodide staining by flow cytometry (reference value: 10.15%); type: functional
HepG2 [10] = experiment: Induction of apoptosis in human HepG2 cells assessed as necrotic cells at 25 uM after 48 hrs using annexin V-FITC/propidium iodide staining by flow cytometry (reference value: 2.39%); type: functional
HepG2 [11] = experiment: Induction of apoptosis in human HepG2 cells assessed as apoptotic rate at 25 uM after 48 hrs using annexin V-FITC/propidium iodide staining by flow cytometry (reference value: 10.80%); type: functional
HepG2 [12] = experiment: Induction of apoptosis in human HepG2 cells assessed as late stage apoptotic cells at 6.25 uM after 48 hrs using annexin V-FITC/propidium iodide staining by flow cytometry (reference value: 0.65%); type: functional
HepG2 [13] = experiment: Induction of apoptosis in human HepG2 cells assessed as early stage apoptotic cells at 6.25 uM after 48 hrs using annexin V-FITC/propidium iodide staining by flow cytometry (reference value: 10.15%); type: functional
HepG2 [14] = experiment: Induction of apoptosis in human HepG2 cells assessed as viable cells at 25 uM after 48 hrs using annexin V-FITC/propidium iodide staining by flow cytometry (reference value: 86.80%); type: functional; details: HepG2, 48 h, read-out: Activity
HepG2 [15] = experiment: Induction of apoptosis in human HepG2 cells assessed as apoptotic rate at 6.25 uM after 48 hrs using annexin V-FITC/propidium iodide staining by flow cytometry (reference value: 10.80%); type: functional
HepG2 [16] = experiment: Induction of apoptosis in human HepG2 cells assessed as early stage apoptotic cells at 12.50 uM after 48 hrs using annexin V-FITC/propidium iodide staining by flow cytometry (reference value: 10.15%); type: functional

C/C=C1/CN(C)[C@H]2Cc3c([nH]c4ccccc34)[C@H](c3cc4c5c6n(c4cc3OC)C[C@H]3C[C@@H](CC)[C@@H](NCC5)[C@@]6(C(=O)OC)C3)C[C@H]1[C@]2(CO)C(=O)OC
Activity (HepG2 [1]): 3.17%
IC50 (HepG2 [2]): 3.31 µM
Activity (HepG2 [3]): 8.47%
Activity (HepG2 [4]): 7.85%
IC50 (SMMC-7721): 6.76 µM
viability at 6.25 µM (HepG2 [5]): 85%
Activity (HepG2 [6]): 19.77%
viability at 12.5 µM (HepG2 [7]): 72.4%
Activity (HepG2 [8]): 30.97%
IC50 (MCF7): 8.54 µM
Activity (HepG2 [9]): 19.54%
Activity (HepG2 [10]): 15.59%
Activity (HepG2 [11]): 50.51%
Activity (HepG2 [12]): 1.63%
Activity (HepG2 [13]): 10.19%
viability at 25 µM (HepG2 [14]): 33.9%
Activity (HepG2 [15]): 11.82%
Activity (HepG2 [16]): 11.3%

C/C=C1/CN(C)[C@H]2Cc3c([nH]c4ccccc34)[C@H](c3cc4c(cc3OC)c3c5n4C[C@H]4C[C@@H](CC)[C@@H](NCC3)[C@@]5(C(=O)OC)C4)C[C@H]1[C@]2(CO)C(=O)OC
IC50 (HepG2 [2]): 11.3 µM
IC50 (SMMC-7721): 15 µM
IC50 (MCF7): 11 µM

CC[C@]1(C(=O)O)C[C@@H](C(=O)OC)C2=Nc3cc(OC)ccc3[C@@]23CCN(CCO)[C@@H]13
IC50 (HepG2 [2]): > 100 µM
IC50 (SMMC-7721): > 100 µM
IC50 (MCF7): > 100 µM

CC[C@]1(C(=O)O)C[C@@H](C(=O)OC)C2=Nc3cc(OC)ccc3[C@@]23CCN(CCO)[C@H]13
IC50 (HepG2 [2]): > 100 µM
IC50 (SMMC-7721): > 100 µM
IC50 (MCF7): > 100 µM

CC[C@@]12C[C@@H](C(=O)OC)C3=Nc4cc(OC)ccc4[C@@]34CCN(CCOC1=O)[C@@H]24
IC50 (HepG2 [2]): > 100 µM
IC50 (SMMC-7721): > 100 µM
IC50 (MCF7): > 100 µM

CC[C@@]12C[C@@H](C(=O)OC)C3=Nc4cc(OC)ccc4[C@@]34CCN(CCOC1=O)[C@H]24
IC50 (HepG2 [2]): > 100 µM
IC50 (SMMC-7721): > 100 µM
IC50 (MCF7): > 100 µM

CC[C@H]1C[C@@H]2Cn3c4c(c5ccc(OC)cc53)CCN[C@H]1[C@@]4(C(=O)OC)C2
IC50 (HepG2 [2]): > 100 µM
IC50 (SMMC-7721): > 100 µM
IC50 (MCF7): > 100 µM

COC(=O)[C@@]12C[C@@H]3C[C@H]([C@H](C)O)[C@H]1NCCc1c2n(c2cc(OC)ccc12)C3
IC50 (HepG2 [2]): > 100 µM
IC50 (SMMC-7721): > 100 µM
IC50 (MCF7): > 100 µM

CC[C@H]1C[C@H]2C[C@@]3(C(=O)OC)c4c(c5ccc(OC)cc5n4C2=O)CCN[C@H]13
IC50 (HepG2 [2]): > 100 µM
IC50 (SMMC-7721): > 100 µM
IC50 (MCF7): > 100 µM

COC(=O)[C@@]12C[C@@H]3C[C@H]([C@H](C)O)[C@H]1NCCc1c2n(c2ccccc12)C3
IC50 (HepG2 [2]): > 100 µM
IC50 (SMMC-7721): > 100 µM
IC50 (MCF7): > 100 µM

C/C=C1/CN(C)[C@H]2Cc3c([nH]c4ccccc34)[C@H](c3c(OC)ccc4c5c([nH]c34)[C@@]3(C(=O)OC)C[C@H]4C[C@H](CC)[C@@H]3N(CC5)C4)C[C@H]1[C@]2(CO)C(=O)OC
IC50 (HepG2 [2]): 13.1 µM
IC50 (SMMC-7721): 12.6 µM
IC50 (MCF7): 14.6 µM

C/C=C1/CN(C)[C@H]2Cc3c([nH]c4ccccc34)[C@H](c3cc4c5c([nH]c4cc3OC)[C@@]3(C(=O)OC)C[C@H]4C[C@H](CC)[C@H]3N(CC5)C4)C[C@H]1[C@]2(CO)C(=O)OC
IC50 (HepG2 [2]): 12.8 µM
IC50 (SMMC-7721): 4.63 µM
IC50 (MCF7): 38 µM
